Activity calls are given as the source filed them. No cut-off for these calls is given here.

The test system of data set [1] is Mus musculus. Nature of the data set: Antidepressant activity in Mus musculus (mouse) assessed as immobility time at 100 mg/kg, ip administered 60 min before test measured during last 4 min of 6 min testing period. In kind it is functional. Particulars: route intraperitoneal.
Data set [2] in a line: Octanol-phosphate buffer partition coefficient, log P of the compound. In kind it is physicochemical.
The subject of data set [3] is Mus musculus. Nature of the data set: Neurotoxicity in ip dosed Mus musculus (mouse) assessed as motor impairment after 4 hr by rotorod test. In kind it is toxicity, organism-based. As to conditions: in vivo.
The test system of data set [4] is Mus musculus. Nature of the data set: Neurotoxicity in ip dosed Mus musculus (mouse) assessed as motor impairment after 0.5 hr by rotorod test. In kind it is toxicity, organism-based. Particulars: in vivo.
Data set [5] concerns Mus musculus. Nature of the data set: Anticonvulsant activity in Mus musculus (mouse) assessed as protection against subcutaneous pentylenetetrazole-induced seizure at 300 mg/kg, ip after 0.5 hr. Set-up: dose 300 mg/kg. In kind it is functional, organism-based.
Data set [6] deals with Mus musculus. Nature of the data set: Anticonvulsant activity in ip dosed Mus musculus (mouse) assessed as protection against subcutaneous pentylenetetrazole-induced seizure after 4 hr. As to conditions: read-out: MED. It counts as functional.
Data set [7] concerns Mus musculus. Nature of the data set: Anticonvulsant activity in ip dosed Mus musculus (mouse) assessed as protection against maximal electroshock-induced seizure after 4 hr. It counts as functional. As to conditions: read-out: MED.
Data set [8] relates to Mus musculus. Nature of the data set: Anticonvulsant activity in ip dosed Mus musculus (mouse) assessed as protection against maximal electroshock-induced seizure after 0.5 hr. In kind it is functional. As to conditions: read-out: MED.
In data set [9] the test system is Mus musculus. Nature of the data set: Neurotoxicity in Mus musculus (mouse) assessed as motor impairment at 300 mg/kg, ip after 4 hr by rotorod test. It counts as toxicity, organism-based. Set-up: dose 300 mg/kg, route intraperitoneal. As to conditions: in vivo.
Data set [10] deals with Mus musculus. In words: Neurotoxicity in Mus musculus (mouse) assessed as motor impairment at 300 mg/kg, ip after 0.5 hr by rotorod test. In kind it is toxicity, organism-based. Particulars: in vivo. Set-up: dose 300 mg/kg, route intraperitoneal.
In data set [11] the test system is Mus musculus. Nature of the data set: Anticonvulsant activity in ip dosed Mus musculus (mouse) assessed as protection against subcutaneous pentylenetetrazole-induced seizure after 0.5 hr. As to conditions: read-out: MED. It counts as functional.
Data set [12] concerns Mus musculus. Nature of the data set: Anticonvulsant activity in Mus musculus (mouse) assessed as protection against subcutaneous pentylenetetrazole-induced seizure at 300 mg/kg, ip after 4 hr. In kind it is functional, organism-based. Set-up: dose 300 mg/kg.
Data set [13] relates to Mus musculus. In words: Anticonvulsant activity in Mus musculus (mouse) assessed as protection against maximal electroshock-induced seizure at 300 mg/kg, ip after 0.5 hr. It counts as functional, organism-based. Set-up: dose 300 mg/kg.
For data set [14], the system named is Mus musculus. Nature of the data set: Anticonvulsant activity in Mus musculus (mouse) assessed as protection against maximal electroshock-induced seizure at 300 mg/kg, ip after 4 hr. It counts as functional, organism-based. Set-up: dose 300 mg/kg.

In the case of `O=C(Cn1ccc2ccccc21)Nc1nc2ccc(Cl)cc2s1`, the Time with Mus musculus [1] was determined as 152 s. In addition, the logP in data set [2] is 4.62. Also, the MED in the data set with Mus musculus [3] came to 300 mg/kg; in the data set on Mus musculus [4], 100 mg/kg. Also, in the data set with Mus musculus [5], the outcome was inactive. Further, the minimal effective dose came to 300 mg/kg in the data set on Mus musculus [6], 300 mg/kg with Mus musculus [7] and 100 mg/kg with Mus musculus [8].
For `O=C(CN1CCOCC1)Nc1nc2ccc(Cl)cc2s1`, the Time in the data set with Mus musculus [1] was determined as 140 s. In [2], this molecule returned a lipophilicity (logP) of 2.32. Besides, the Activity result in the data set with Mus musculus [9] and in the data set with Mus musculus [10] was “Non-toxic” in each case. The minimal effective dose came to 100 mg/kg with Mus musculus [6], 100 mg/kg with Mus musculus [11], 30 mg/kg in the data set with Mus musculus [7] and 30 mg/kg in the data set on Mus musculus [8].
Consider `COc1ccc(/C=N/NC(=S)Nc2nc3ccc(Cl)cc3s2)cc1`, for which the Time in the data set on Mus musculus [1] is reported as 181 s. In addition, the logP in data set [2] was 5.16. Also, the MED is 300 mg/kg in the data set with Mus musculus [3] and 100 mg/kg with Mus musculus [4]. Also, the outcome in the data set on Mus musculus [12], in the data set on Mus musculus [5] and with Mus musculus [13] was inactive. The minimal effective dose in the data set with Mus musculus [7] came out at 300 mg/kg.
With `S=C(N/N=C/c1ccc(Cl)cc1)Nc1nc2ccc(Cl)cc2s1`, the Time in the data set on Mus musculus [1] turned out to be 191 s. This molecule also had a log partition coefficient (logP) in data set [2] of 5.52. Moreover, the Activity result in the data set with Mus musculus [9] is given as “Non-toxic”. The MED with Mus musculus [4] was determined as 300 mg/kg. Moreover, the result in the data set with Mus musculus [12], in the data set on Mus musculus [5] and with Mus musculus [14] was inactive. Moreover, in the data set on Mus musculus [8], the minimal effective dose was 300 mg/kg.
On to `Oc1ccc(/C=N/NC(=S)Nc2nc3ccc(Cl)cc3s2)cc1`, for which, in the data set with Mus musculus [1], the Time stood at 169 s. In data set [2], this molecule yielded a lipophilicity (logP) of 4.78. Besides, in the data set with Mus musculus [10], the Activity result is recorded as “Non-toxic”. In addition, the MED in the data set with Mus musculus [3] amounted to 100 mg/kg. The outcome in the data set with Mus musculus [12] and in the data set with Mus musculus [14] was inactive. Also, the minimal effective dose in the data set with Mus musculus [11] and in the data set on Mus musculus [8] was 100 mg/kg in each case.
With `O=C(CN1CCCCC1)Nc1nc2ccc(Cl)cc2s1`, the Time in the data set on Mus musculus [1] turned out to be 145 s. The molecule also showed a logP in data set [2] of 3.16. For the same molecule, in the data set on Mus musculus [10], the Activity entry is “Non-toxic”. The MED with Mus musculus [3] turned out to be 300 mg/kg. Further, the result in the data set with Mus musculus [12] was inactive. For the same molecule, the values for the minimal effective dose in the data set with Mus musculus [11], in the data set with Mus musculus [7] and in the data set with Mus musculus [8] were 100 mg/kg, 100 mg/kg and 30 mg/kg, respectively.
`O=C1NC(=O)C(c2ccccc2)(c2ccccc2)N1` [PHENYTOIN]: the MED with Mus musculus [3] and in the data set on Mus musculus [4] was 100 mg/kg in each case. The outcome in the data set with Mus musculus [12] and in the data set with Mus musculus [5] was inactive. The minimal effective dose in the data set with Mus musculus [7] and with Mus musculus [8] was 30 mg/kg each time.
For the molecule `O=[N+]([O-])c1ccc(/C=N/NC(=S)Nc2nc3ccc(Cl)cc3s2)cc1`, the Time with Mus musculus [1] amounted to 157 s. The molecule further had a lipophilicity (logP) in data set [2] of 4.68. Besides, the MED in the data set on Mus musculus [3] and in the data set with Mus musculus [4] was 300 mg/kg in each case. Besides, the minimal effective dose in the data set with Mus musculus [6] was 300 mg/kg; in the data set with Mus musculus [11] it was 300 mg/kg; with Mus musculus [8], 100 mg/kg. In addition, the result in the data set on Mus musculus [14] was inactive.
For `S=C(N/N=C/c1ccccc1)Nc1nc2ccc(Cl)cc2s1`, in the data set with Mus musculus [1], the Time came out at 162 s. Further, in [2], the logP worked out at 4.86. Moreover, the MED in the data set on Mus musculus [3] and with Mus musculus [4] was 300 mg/kg each time. Besides, the result with Mus musculus [12], in the data set with Mus musculus [5] and with Mus musculus [13] was inactive. The minimal effective dose with Mus musculus [7] was found to be 300 mg/kg.
In the case of `O=C(Cn1ccnc1)Nc1nc2ccc(Cl)cc2s1`, in the data set on Mus musculus [1], the Time is 137 s. The molecule further yielded a log partition coefficient (logP) in [2] of 2.14. The Activity entry in the data set on Mus musculus [9] and in the data set on Mus musculus [10] was “Non-toxic” in each case. Further, the minimal effective dose was found to be 100 mg/kg in the data set on Mus musculus [6], 100 mg/kg with Mus musculus [11], 30 mg/kg with Mus musculus [7] and 30 mg/kg in the data set with Mus musculus [8].
As to `O=C(CNc1ccc(Cl)cc1)Nc1nc2ccc(Cl)cc2s1`, the Time in the data set on Mus musculus [1] is reported as 161 s. For the same molecule, the logP in [2] was 4.24. The Activity entry with Mus musculus [10] is recorded as “Non-toxic”. In addition, the MED in the data set with Mus musculus [3] amounted to 100 mg/kg. For the same molecule, the result in the data set on Mus musculus [12], in the data set with Mus musculus [5] and with Mus musculus [14] was inactive. Further, the minimal effective dose in the data set on Mus musculus [8] came out at 100 mg/kg.
Turning to `NC(=O)N1c2ccccc2C=Cc2ccccc21` [CARBAMAZEPINE], the Time with Mus musculus [1] worked out at 179 s. Also, the MED with Mus musculus [3] was found to be 300 mg/kg; in the data set on Mus musculus [4], 100 mg/kg. Besides, the minimal effective dose in the data set on Mus musculus [6] stood at 100 mg/kg; in the data set with Mus musculus [11], 100 mg/kg; with Mus musculus [7], 100 mg/kg; in the data set with Mus musculus [8], 30 mg/kg.
Consider `Fc1ccc(/C=N/NC(=S)Nc2nc3ccc(Cl)cc3s2)cc1`, for which the Time in the data set on Mus musculus [1] is 188 s. Moreover, the logP in [2] is 5.22. For the same molecule, the MED in the data set with Mus musculus [3] and in the data set on Mus musculus [4] was 100 mg/kg throughout. The minimal effective dose with Mus musculus [6] turned out to be 100 mg/kg; in the data set on Mus musculus [11] it was 100 mg/kg; with Mus musculus [7], 30 mg/kg; in the data set on Mus musculus [8], 30 mg/kg.
As to `O=C(CN(c1ccccc1)c1ccccc1)Nc1nc2ccc(Cl)cc2s1`, the Time in the data set on Mus musculus [1] stood at 196 s. Also, the lipophilicity (logP) in data set [2] turned out to be 6.12. The Activity result in the data set on Mus musculus [9] was “Non-toxic”. Besides, in the data set on Mus musculus [4], the MED was 300 mg/kg. In addition, the result in the data set on Mus musculus [12], in the data set with Mus musculus [5] and in the data set on Mus musculus [14] was inactive. Further, the minimal effective dose in the data set with Mus musculus [8] stood at 300 mg/kg.
Take `CC(C)(C)NCC(=O)Nc1nc2ccc(Cl)cc2s1`: the Time in the data set with Mus musculus [1] is reported as 129 s. This molecule also displayed a log partition coefficient (logP) in data set [2] of 3.02. Moreover, in the data set with Mus musculus [10], the Activity entry was “Non-toxic”. Further, in the data set with Mus musculus [3], the MED is 300 mg/kg. Further, the minimal effective dose with Mus musculus [6] amounted to 300 mg/kg; in the data set with Mus musculus [11], 100 mg/kg; in the data set on Mus musculus [7], 100 mg/kg; in the data set on Mus musculus [8] it was 30 mg/kg.
In the case of `O=C(CNc1ccc(F)cc1)Nc1nc2ccc(Cl)cc2s1`, the Time with Mus musculus [1] came to 169 s. The same molecule registered a lipophilicity (logP) in [2] of 3.88. In addition, the Activity entry in the data set with Mus musculus [9] and in the data set with Mus musculus [10] was “Non-toxic” in each case. The minimal effective dose worked out at 300 mg/kg in the data set on Mus musculus [6], 100 mg/kg in the data set on Mus musculus [11], 100 mg/kg in the data set on Mus musculus [7] and 100 mg/kg in the data set on Mus musculus [8].
On to `CN(C)c1ccc(/C=N/NC(=S)Nc2nc3ccc(Cl)cc3s2)cc1`, for which, in the data set with Mus musculus [1], the Time is recorded as 172 s. This molecule showed a log partition coefficient (logP) in [2] of 5.24. Moreover, the MED in the data set with Mus musculus [3] and with Mus musculus [4] was 100 mg/kg in each case. Also, the result in the data set on Mus musculus [12], in the data set with Mus musculus [5], with Mus musculus [14] and in the data set with Mus musculus [13] was inactive.
In the case of `S=C(N/N=C/c1ccccc1Cl)Nc1nc2ccc(Cl)cc2s1`, in the data set with Mus musculus [1], the Time is given as 177 s. In data set [2], this molecule returned a lipophilicity (logP) of 5.46. For the same molecule, the Activity result in the data set with Mus musculus [10] is “Non-toxic”. In addition, the MED in the data set on Mus musculus [3] amounted to 100 mg/kg. The result with Mus musculus [12], in the data set on Mus musculus [5] and in the data set with Mus musculus [14] was inactive. Also, the minimal effective dose with Mus musculus [8] is 300 mg/kg.

(Values after ChEMBL document CHEMBL3045163, “Synthesis of benzothiazole derivatives having acetamido and carbothioamido pharmacophore as anticonvulsant agents” (Med Chem Res, 2012).)
